species: Mus musculus; assay: Relative CNS activity against reserpine hypothermia in mice relatived to TRH; type: functional, Central nervous system

**Q.** C[C@@H]1SCC(C(=O)N[C@@H](Cc2c[nH]cn2)C(=O)N2CCC[C@@H]2C(N)=O)NC1=O (stereo partly specified) was tested. Which Relative activity did it give?
**A.** 17

**Q.** Which Relative activity does the source give for CC1SCC(C(=O)N[C@@H](Cc2c[nH]cn2)C(=O)N2CCC[C@@H]2C(N)=O)NC1=O (stereo partly specified) here?
**A.** 83

**Q.** Which Relative activity does the source give for NC(=O)[C@H]1CCCN1C(=O)[C@H](Cc1c[nH]cn1)NC(=O)c1nc(O)nc(O)c1Br here?
**A.** 0.7

**Q.** With NC(=O)[C@@H]1CCCN1C(=O)[C@@H](Cc1c[nH]cn1)NC(=O)[C@@H]1CSC(=O)N1 as the compound, how does the Relative activity read?
**A.** 0.8

**Q.** CCc1c(O)nc(O)nc1C(=O)N[C@@H](Cc1c[nH]cn1)C(=O)N1CCC[C@@H]1C(N)=O was tested. Which Relative activity did it give?
**A.** 0.09

**Q.** With CCCc1c(O)nc(O)nc1C(=O)N[C@@H](Cc1c[nH]cn1)C(=O)N1CCC[C@@H]1C(N)=O as the compound, how does the Relative activity read?
**A.** 0.8
